Molecular target: T1, KCNQ2/3 channels (Homo sapiens, UniProt O43525+O43526)
T1 construct: expressed in transfected cells
Assay: Fluorescence assay using a voltage sensitive dye (fluorimetry)
Type: cell-based
Settings: CHO-K1 cells expressing KCNQ2/3 channels; for EC50: agonistic activity; for Emax: retigabine 50 μM = 100%, read-out: Fluorimetry % efficacy (retigabine 50 μM = 100%)
How it was run: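 CHO-K1 cells expressing human KCNQ2/3, loaded 45 min with red membrane-potential dye in ES buffer pH 7.4 (1 mM KCl), compound 30 min at room temperature. Fluorescence (525/560 nm) read before (F1) and at peak after KCl to 92 mM final (F2); agonism from F2/F1 change, EC50 fitted.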

Row | SMILES | EC50 | Emax
1 | O=C(NCc1ccco1)c1cccnc1SCCCc1ccc(F)cc1 [compound 174, 2-[3-(4-Fluorophenyl)-propylsulfanyl]-N-(furan-2-yl-methyl)-pyridine-3-carboxylic acid amide] | 134 nM | 213%
2 | Cc1ccc(CNC(=O)c2cccnc2SCCCc2ccc(F)cc2)o1 [compound 175, 2-[3-(4-Fluorophenyl)-propylsulfanyl]-N-[(5-methyl-furan-2-yl)-methyl]-pyridine-3-carboxylic acid amide] | 126 nM | 173%
3 | CC(CCc1ccc(F)cc1)Sc1ncccc1C(=O)NCc1ccc(F)cc1 (stereo not drawn) [compound 176, N-[(4-Fluorophenyl)-methyl]-2-[[3-(4-fluorophenyl)-1-methyl-propyl]sulfanyl]-pyridine-3-carboxylic acid amide] | 40 nM | 108%
4 | CC(C)CCNC(=O)c1cccnc1SC(C)CCc1ccc(F)cc1 (stereo not drawn) [compound 177, 2-[[3-(4-Fluorophenyl)-1-methyl-propyl]sulfanyl]-N-(3-methyl-butyl)-pyridine-3-carboxylic acid amide] | 76 nM | 192%
5 | CC(CCc1ccc(F)cc1)Sc1ncccc1C(=O)NCC1C2CCC1CC2 (stereo not drawn) [compound 178, N-(7-Bicyclo[2.2.1]heptanyl-methyl)-2-[[3-(4-fluorophenyl)-1-methyl-propyl]sulfanyl]-pyridine-3-carboxylic acid amide] | 96 nM | 270%
6 | O=C(NCC1CCCO1)c1cccnc1SCCC(F)(F)c1ccc(F)cc1 (stereo not drawn) [compound 179, 2-[[3,3-Difluoro-3-(4-fluorophenyl)-propyl]sulfanyl]-N-(tetrahydro-furan-2-yl-methyl)-pyridine-3-carboxylic acid amide] | 378 nM | 234%
7 | O=C(NCC1CCCO1)c1cccnc1SCCCc1ccc(F)cc1 (stereo not drawn) [compound 181, 2-[3-(4-Fluorophenyl)-propylsulfanyl]-N-(tetrahydro-furan-2-yl-methyl)-pyridine-3-carboxylic acid amide] | 1550 nM | 254%
8 | COC(CNC(=O)c1cccnc1SCCCc1ccc(F)cc1)C(C)(C)C (stereo not drawn) [compound 182, 2-[3-(4-Fluorophenyl)-propylsulfanyl]-N-(2-methoxy-3,3-dimethyl-butyl)-pyridine-3-carboxylic acid amide] | 366 nM | 110%
9 | Cc1cccc(CNC(=O)c2cccnc2SCCC(F)(F)c2ccc(F)cc2)c1 [compound 183, 2-[[3,3-Difluoro-3-(4-fluorophenyl)-propyl]sulfanyl]-N-(m-tolyl-methyl)-pyridine-3-carboxylic acid amide] | 43 nM | 109%
10 | Cc1cc(C)cc(CNC(=O)c2cccnc2SCCC(F)(F)c2ccc(F)cc2)c1 [compound 184, 2-[[3,3-Difluoro-3-(4-fluorophenyl)-propyl]sulfanyl]-N-[(3,5-dimethyl-phenyl)-methyl]-pyridine-3-carboxylic acid amide] | – | 23%
11 | CCCNC(=O)c1cccnc1SCCC(F)(F)c1ccc(F)cc1 [compound 185, 2-[[3,3-Difluoro-3-(4-fluorophenyl)-propyl]sulfanyl]-N-propyl-pyridine-3-carboxylic acid amide] | 167 nM | 212%
12 | CCCCCCNC(=O)c1cccnc1SCCC(F)(F)c1ccc(F)cc1 [compound 186, 2-[[3,3-Difluoro-3-(4-fluorophenyl)-propyl]sulfanyl]-N-hexyl-pyridine-3-carboxylic acid amide] | 236 nM | 191%
13 | O=C(NCC1CCOC1)c1cccnc1SCCC(F)(F)c1ccc(F)cc1 (stereo not drawn) [compound 187, 2-[[3,3-Difluoro-3-(4-fluorophenyl)-propyl]sulfanyl]-N-(tetrahydro-furan-3-yl-methyl)-pyridine-3-carboxylic acid amide] | 805 nM | 231%
14 | O=C(NCC1CCCOC1)c1cccnc1SCCC(F)(F)c1ccc(F)cc1 (stereo not drawn) [compound 188, 2-[[3,3-Difluoro-3-(4-fluorophenyl)-propyl]sulfanyl]-N-(tetrahydro-pyran-3-yl-methyl)-pyridine-3-carboxylic acid amide] | 315 nM | 210%
15 | O=C(NCC1CCOCC1)c1cccnc1SCCC(F)(F)c1ccc(F)cc1 [compound 189, 2-[[3,3-Difluoro-3-(4-fluorophenyl)-propyl]sulfanyl]-N-(tetrahydro-pyran-4-yl-methyl)-pyridine-3-carboxylic acid amide] | 287 nM | 161%
16 | O=C(NCc1ccco1)c1cccnc1SCCC(F)(F)c1ccc(F)cc1 [compound 190, 2-[[3,3-Difluoro-3-(4-fluorophenyl)-propyl]sulfanyl]-N-(furan-2-yl-methyl)-pyridine-3-carboxylic acid amide] | 26 nM | 214%

Row | SMILES | EC50 | Emax
17 | Cc1ccc(CNC(=O)c2cccnc2SCCC(F)(F)c2ccc(F)cc2)o1 [compound 191, 2-[[3,3-Difluoro-3-(4-fluorophenyl)-propyl]sulfanyl]-N-[(5-methyl-furan-2-yl)-methyl]-pyridine-3-carboxylic acid amide] | 37 nM | 202%
18 | CCCCCNC(=O)c1cccnc1SCCC(F)(F)c1ccc(F)cc1 [compound 192, 2-[[3,3-Difluoro-3-(4-fluorophenyl)-propyl]sulfanyl]-N-pentyl-pyridine-3-carboxylic acid amide] | 32 nM | 195%
19 | COC(C)CCNC(=O)c1cccnc1SCCC(F)(F)c1ccc(F)cc1 (stereo not drawn) [compound 193, 2-[[3,3-Difluoro-3-(4-fluorophenyl)-propyl]sulfanyl]-N-(3-methoxy-butyl)-pyridine-3-carboxylic acid amide] | 371 nM | 206%
20 | COC(C)CNC(=O)c1cccnc1SCCC(F)(F)c1ccc(F)cc1 (stereo not drawn) [compound 194, 2-[[3,3-Difluoro-3-(4-fluorophenyl)-propyl]sulfanyl]-N-(2-methoxy-propyl)-pyridine-3-carboxylic acid amide] | 232 nM | 203%
21 | CCC(CNC(=O)c1cccnc1SCCC(F)(F)c1ccc(F)cc1)OC (stereo not drawn) [compound 195, 2-[[3,3-Difluoro-3-(4-fluorophenyl)-propyl]sulfanyl]-N-(2-methoxy-butyl)-pyridine-3-carboxylic acid amide] | 48 nM | 122%
22 | COC(=O)CCNC(=O)c1cccnc1SCCC(F)(F)c1ccc(F)cc1 [compound 196, 3-[[2-[[3,3-Difluoro-3-(4-fluorophenyl)-propyl]sulfanyl]-pyridine-3-carbonyl]amino]-propionic acid methyl ester] | 3710 nM | 190%
23 | O=C(O)CCNC(=O)c1cccnc1SCCC(F)(F)c1ccc(F)cc1 [compound 197, 3-[[2-[[3,3-Difluoro-3-(4-fluorophenyl)-propyl]sulfanyl]-pyridine-3-carbonyl]amino]-propionic acid] | 14700 nM | 128%
24 | CN(C)CCNC(=O)c1cccnc1SCCC(F)(F)c1ccc(F)cc1 [compound 198, 2-[[3,3-Difluoro-3-(4-fluorophenyl)-propyl]sulfanyl]-N-(2-dimethylaminoethyl)-pyridine-3-carboxylic acid amide] | 8840 nM | 110%
25 | CC(CCc1ccc(F)c(F)c1)Sc1ncccc1C(=O)NCc1ccc(F)cc1 (stereo not drawn) [compound 199, 2-[[3-(3,4-Difluoro-phenyl)-1-methyl-propyl]sulfanyl]-N-[(4-fluorophenyl)-methyl]-pyridine-3-carboxylic acid amide] | 20 nM | 124%
26 | CC(C)CCNC(=O)c1cccnc1SC(C)CCc1ccc(F)c(F)c1 (stereo not drawn) [compound 200, 2-[[3-(3,4-Difluoro-phenyl)-1-methyl-propyl]sulfanyl]-N-(3-methyl-butyl)-pyridine-3-carboxylic acid amide] | 40 nM | 230%
27 | CC(CCc1cccc(F)c1)Sc1ncccc1C(=O)NCc1ccc(F)cc1 (stereo not drawn) [compound 201, N-[(4-Fluorophenyl)-methyl]-2-[[3-(3-fluorophenyl)-1-methyl-propyl]sulfanyl]-pyridine-3-carboxylic acid amide] | 40 nM | 128%
28 | CC(C)CCNC(=O)c1cccnc1SC(C)CCc1cccc(F)c1 (stereo not drawn) [compound 202, 2-[[3-(3-Fluorophenyl)-1-methyl-propyl]sulfanyl]-N-(3-methyl-butyl)-pyridine-3-carboxylic acid amide] | 71 nM | 235%
29 | CC(C)CCNC(=O)c1cccnc1SC(C)CCc1cccc(C(F)(F)F)c1 (stereo not drawn) [compound 203, N-(3-Methyl-butyl)-2-[[1-methyl-3-[3-(trifluoromethyl)phenyl]-propyl]sulfanyl]-pyridine-3-carboxylic acid amide] | 20 nM | 233%
30 | O=C(NCc1ccc(F)cc1)c1cccnc1SCCC(F)(F)c1ccc(F)c(F)c1 [compound 204, 2-[[3-(3,4-Difluoro-phenyl)-3,3-difluoro-propyl]sulfanyl]-N-[(4-fluorophenyl)-methyl]-pyridine-3-carboxylic acid amide] | 11 nM | 125%
31 | O=C(NCC12CCC(CC1)C2)c1cccnc1SCCC(F)(F)c1ccc(F)cc1 [compound 205, N-(1-Bicyclo[2.2.1]heptanyl-methyl)-2-[[3,3-difluoro-3-(4-fluorophenyl)-propyl]sulfanyl]-pyridine-3-carboxylic acid amide] | 28 nM | 294%
32 | O=C(NCC12CCC(CC1)C2)c1cccnc1SCCCc1ccc(F)cc1 [compound 206, N-(1-Bicyclo[2.2.1]heptanyl-methyl)-2-[3-(4-fluorophenyl)-propylsulfanyl]-pyridine-3-carboxylic acid amide] | 40 nM | 293%
